Laboratory results from ChEMBL document CHEMBL1255208, “A class of novel conjugates of substituted purine and Gly-AA-OBzl: synthesis and evaluation of orally analgesic activity” (2010).
Where a SMILES comes first, the peptide text is derived from it. The star is where a group is joined. OBn = c1ccc(CO*)cc1

How the values were obtained:
Format in all cases: functional
[1] = tested on: Mus musculus; test: Analgesic activity in mouse assessed as pain threshold variation at 25 umol/kg, po after 90 mins (RVb = 0.2 +/- 3.75 %)
[2] = tested on: Mus musculus; test: Analgesic activity in mouse assessed as pain threshold variation at 25 umol/kg, po after 180 mins (RVb = -5.10 %)
[3] = tested on: Mus musculus; test: Analgesic activity in mouse assessed as pain threshold variation at 25 umol/kg, po after 120 mins (RVb = 0.69 +/- 1.98 %)
[4] = tested on: Mus musculus; test: Analgesic activity in mouse assessed as pain threshold variation at 25 umol/kg, po after 60 mins (RVb = -6.5 +/- 1.79 %)
[5] = tested on: Mus musculus; test: Analgesic activity in mouse assessed as pain threshold variation at 25 umol/kg, po after 150 mins (RVb = 3.98 +/- 4.03 %)
[6] = tested on: Mus musculus; test: Analgesic activity in mouse assessed as pain threshold variation at 25 umol/kg, po after 30 mins (RVb = -1 +/- 2.8 %)
[7] = tested on: Mus musculus; test: Analgesic activity in mouse assessed as pain threshold variation at 3 umol/kg, po after 120 mins (RVb = 0.18 +/- 0.15 %)
[8] = tested on: Mus musculus; test: Analgesic activity in mouse assessed as pain threshold variation at 3 umol/kg, po after 180 mins (RVb = 0.15 +/- 0.12 %)
[9] = tested on: Mus musculus; test: Analgesic activity in mouse assessed as pain threshold variation at 0.3 umol/kg, po after 30 mins (RVb = 0.13 +/- 0.14 %)
[10] = tested on: Mus musculus; test: Analgesic activity in mouse assessed as pain threshold variation at 0.3 umol/kg, po after 180 mins (RVb = 0.15 +/- 0.12 %)
[11] = tested on: Mus musculus; test: Analgesic activity in mouse assessed as pain threshold variation at 3 umol/kg, po after 60 mins (RVb = 0.15 +/- 0.16 %)
[12] = tested on: Mus musculus; test: Analgesic activity in mouse assessed as pain threshold variation at 0.3 umol/kg, po after 90 mins (RVb = 0.17 +/- 0.14 %)
[13] = tested on: Mus musculus; test: Analgesic activity in mouse assessed as pain threshold variation at 30 umol/kg, po after 90 mins (RVb = 0.17 +/- 0.14 %)
[14] = tested on: Mus musculus; test: Analgesic activity in mouse assessed as pain threshold variation at 30 umol/kg, po after 60 mins (RVb = 0.15 +/- 0.16 %)
[15] = tested on: Mus musculus; test: Analgesic activity in mouse assessed as pain threshold variation at 30 umol/kg, po after 30 mins (RVb = 0.13 +/- 0.14 %)
[16] = tested on: Mus musculus; test: Analgesic activity in mouse assessed as pain threshold variation at 0.3 umol/kg, po after 150 mins (RVb = 0.16 +/- 0.13 %)
[17] = tested on: Mus musculus; test: Analgesic activity in mouse assessed as pain threshold variation at 3 umol/kg, po after 90 mins (RVb = 0.17 +/- 0.14 %)
[18] = tested on: Mus musculus; test: Analgesic activity in mouse assessed as pain threshold variation at 3 umol/kg, po after 30 mins (RVb = 0.13 +/- 0.14 %)
[19] = tested on: Mus musculus; test: Analgesic activity in mouse assessed as pain threshold variation at 0.3 umol/kg, po after 60 mins (RVb = 0.15 +/- 0.16 %)
[20] = tested on: Mus musculus; test: Analgesic activity in mouse assessed as pain threshold variation at 30 umol/kg, po after 150 mins (RVb = 0.16 +/- 0.13 %)
[21] = tested on: Mus musculus; test: Analgesic activity in mouse assessed as pain threshold variation at 3 umol/kg, po after 150 mins (RVb = 0.16 +/- 0.13 %)
[22] = tested on: Mus musculus; test: Analgesic activity in mouse assessed as pain threshold variation at 30 umol/kg, po after 180 mins (RVb = 0.15 +/- 0.12 %)
[23] = tested on: Mus musculus; test: Analgesic activity in mouse assessed as pain threshold variation at 30 umol/kg, po after 120 mins (RVb = 0.18 +/- 0.15 %)
[24] = tested on: Mus musculus; test: Analgesic activity in mouse assessed as pain threshold variation at 0.3 umol/kg, po after 120 mins (RVb = 0.18 +/- 0.15 %)

SMILES: C[C@@H](O)[C@H](NC(=O)CN(c1nc(Cl)nc2c1ncn2C1CCCCO1)C1CC1)C(=O)OCc1ccccc1 (stereo not given in full)
- Activity [1]: 23.38%
- Activity [2]: 2.34%
- Activity [3]: 10.91%
- Activity [4]: 28.36%
- Activity [5]: 6.53%
- Activity [6]: 23.61%

SMILES: CC(C)[C@H](NC(=O)CN(c1nc(Cl)nc2c1ncn2C1CCCCO1)C1CC1)C(=O)OCc1ccccc1 (stereo not given in full)
- Activity [1]: 30.14%
- Activity [2]: 5.65%
- Activity [3]: 25.79%
- Activity [4]: 34.85%
- Activity [5]: 21.08%
- Activity [6]: 21.83%

SMILES: O=C(O)CN(c1nc(Cl)nc2c1ncn2C1CCCCO1)C1CC1 (stereo not given)
- Activity [1]: 8.22%
- Activity [2]: 3.41%
- Activity [3]: 7.68%
- Activity [4]: 15.24%
- Activity [5]: 3.12%
- Activity [6]: 5.21%

SMILES: C[C@H](NC(=O)CN(c1nc(Cl)nc2c1ncn2C1CCCCO1)C1CC1)C(=O)OCc1ccccc1 (stereo not given in full)
- Activity [7]: 18.03%
- Activity [8]: 10%
- Activity [9]: 25.6%
- Activity [1]: 32.06%
- Activity [10]: 8.09%
- Activity [11]: 39.81%
- Activity [12]: 11.43%
- Activity [13]: 37.16%
- Activity [2]: 5.96%
- Activity [3]: 25.3%
- Activity [4]: 53%
- Activity [14]: 58.18%
- Activity [5]: 6.01%
- Activity [15]: 60.11%
- Activity [16]: 10%
- Activity [17]: 25.34%
- Activity [18]: 43.25%
- Activity [19]: 21.56%
- Activity [20]: 11.2%
- Activity [21]: 12%
- Activity [6]: 55.91%
- Activity [22]: 11%
- Activity [23]: 30.44%
- Activity [24]: 11.03%

SMILES: NC(=O)C[C@H](NC(=O)CN(c1nc(Cl)nc2c1ncn2C1CCCCO1)C1CC1)C(=O)OCc1ccccc1 (stereo not given in full)
- Activity [1]: 34.95%
- Activity [2]: 15.45%
- Activity [3]: 29.15%
- Activity [4]: 30.54%
- Activity [5]: 21.71%
- Activity [6]: 34.53%

SMILES: NC(=O)CC[C@H](NC(=O)CN(c1nc(Cl)nc2c1ncn2C1CCCCO1)C1CC1)C(=O)OCc1ccccc1 (stereo not given in full)
- Activity [1]: 37.82%
- Activity [2]: 7.71%
- Activity [3]: 22.34%
- Activity [4]: 39.4%
- Activity [5]: 10.72%
- Activity [6]: 46.96%

SMILES: O=C(CN(c1nc(Cl)nc2c1ncn2C1CCCCO1)C1CC1)N[C@@H](Cc1cnc[nH]1)C(=O)OCc1ccccc1 (stereo not given in full)
- Activity [1]: 14.45%
- Activity [2]: 4.38%
- Activity [3]: 10.16%
- Activity [4]: 36.43%
- Activity [5]: 5.31%
- Activity [6]: 24.98%

SMILES: CC[C@H](C)[C@H](NC(=O)CN(c1nc(Cl)nc2c1ncn2C1CCCCO1)C1CC1)C(=O)OCc1ccccc1 (stereo not given in full)
- Activity [1]: 22.57%
- Activity [2]: 9.15%
- Activity [3]: 20.42%
- Activity [4]: 27.35%
- Activity [5]: 16.43%
- Activity [6]: 25.56%

SMILES: CC(C)C[C@H](NC(=O)CN(c1nc(Cl)nc2c1ncn2C1CCCCO1)C1CC1)C(=O)OCc1ccccc1 (stereo not given in full)
- Activity [1]: 28.22%
- Activity [2]: 0.04%
- Activity [3]: 12.79%
- Activity [4]: 34.19%
- Activity [5]: 6.47%
- Activity [6]: 26.2%

SMILES: CCOC(=O)CN(c1nc(Cl)nc2c1ncn2C1CCCCO1)C1CC1 (stereo not given)
- Activity [1]: 13.04%
- Activity [2]: 5.33%
- Activity [3]: 14.91%
- Activity [4]: 22.64%
- Activity [5]: 11.85%
- Activity [6]: 9.92%

SMILES: C[C@H](NC(=O)CN)C(=O)OCc1ccccc1 (H-Gly-Ala-OBn)
- Activity [13]: 13.45%
- Activity [14]: 13.32%
- Activity [15]: 12.25%
- Activity [20]: 13%
- Activity [22]: 12.99%
- Activity [23]: 13.57%

SMILES: NCC(=O)O [GLYCINE]
- Activity [13]: 11.31%
- Activity [14]: 11.21%
- Activity [15]: 10.13%
- Activity [20]: 11.54%
- Activity [22]: 10.96%
- Activity [23]: 12.03%
